Measurements from PMC3521869 (Journal of medicinal chemistry, 2012).
Bridge positions count the residues as written; N and C are the ends. Square brackets hold non-standard residues; d marks the D form. 2Nal = N[C@@H](Cc1ccc2ccccc2c1)C(=O)O; Cit = NC(=O)NCCC[C@H](N)C(=O)O

Assay: Fraction bound to serum proteins
Type: in vitro ADME
Conditions: human

cyclo([2Nal]CY[Cit]KVCPKILQRCRRDSDCPGACICRGNGYCGSYR[Cit]CRG[dP]RR) (disulfide 2-38, 7-24, 14-26, 20-32) [MCo-CVX-5c]
fraction unbound: < 0.01
